The source of these data is patent publication EP0126483A2, “Deodorant” (Eduard Gerlach GmbH Chemische Fabrik, priority 1983, dated 1984).

The first data set relates to Achsel- und Fußschweiß. Particulars: 3 %ige Lösung in Alkohol/Wassergemisch.
From the text: Die Wirksamkeit der in der Beschreibung genannte Verbindungen wurde folgendermaßen ermittelt: • 1) Die Versuchspersonen, 10 männliche und 10 weibliche Probanden, benutzten zur Körperreinigung ein von bakteriziden und fungiziden Stoffen freies Duschbad. Die linke Achselhöhle und der linke Fuß, insbesondere die Partien zwischen den Zehen, wurden mit einem Präparat gemäß den Beispielen behandelt. Die rechte Achselhöhle und der rechte Fuß wurden nicht behandelt. Die Prüfung erfolgte nach 12 und 24 Stunden durch die Versuchsansteller, indem jeweils ein geruchsfreies Mullkissen aus 4 Lagen Verbandmull mit den behandelten und unbehandelten Stellen in intensive Berührung durch Reiben gebracht wurde. Anschließend prüften die Tester den Geruch der Kissen selbst. […] Sie wurden verpflichtet, kein anderes desodorierendes Präparat, sei es ein kosmetisches Spezialpräparat oder eine sogenannte "Deo-Seife" zu benutzen.
Take `CC(C)(CO)C(O)C(=O)NCCCO` (centres unmarked) [Panthenol, N-Propanolamid der 1,3-Dihydroxy-2,2-Dimethylbuttersäure, reference compound]: the “Desodorierung des Achsel- und Fußschweißes” value is reported as “befriedigende Desodorierung”.

Staying with this data set, now noted: 3 bis 5 % in a deodorant preparation; time after application.
On to `CC(=O)NCCO` [Essigsäuremonoethanolamid], for which the “anhaltender Schutz vor der Bildung unangenehmer Zersetzungsprodukte des Achsel- und Fußschweißes” value is reported as at most 24 Stunden.

The same data set, now with this note: 5 % in Alkohol/Wassergemisch; also in strongly perspiring persons.
For `CC(C)(CO)C(O)C(=O)NCCCO` (centres unmarked) [Panthenol, N-Propanolamid der 1,3-Dihydroxy-2,2-Dimethylbuttersäure, reference compound], the “Desodorierung des Achsel- und Fußschweißes” value is given as “optimal”.

Staying with this data set, now noted: in vivo.
Consider `CC(C)(CO)C(O)C(=O)NCCCO` (centres unmarked) [Panthenol, N-Propanolamid der 1,3-Dihydroxy-2,2-Dimethylbuttersäure, reference compound], for which the Hautfreundlichkeit result is on record as “hervorragender”.

Staying with this data set, now noted: result in words; concentration not given.
For `NC(=O)NC(N)=O` [Biuret], the “desodorierende Wirksamkeit” value was “Wirksam”.

Consider `CC(=O)NCCO` [Essigsäuremonoethanolamid], for which the “desodorierende Wirksamkeit” value is reported as “besonders kräftiger Wirkstoff”.

Consider `CC(O)C(=O)NCCO` (centres unmarked) [Ethanolamide der Milchsäure], for which the “desodorierende Wirksamkeit” value is reported as “Die gleiche Eigenschaft”.

Turning to `CCC(=O)NCCO` [Ethanolamide der Propionsäure], the “desodorierende Wirksamkeit” value is listed as “Die gleiche Eigenschaft”.

For the compound `NC(N)=O` [Harnstoff, reference compound], the “desodorierende Wirksamkeit” value is listed as “mit bestem Erfolg”.

As for `O=C(O)CNC(=O)c1ccccc1` [Hippursäure], the “desodorierende Wirksamkeit” value is given as “Wirksam”.

As to `O=C1CC(=O)NC(=O)N1` [Malonylharnstoff(Barbitursäure), Malonylharnstoff], the “desodorierende Wirksamkeit” value is on record as “Wirksam”.

With `CC(=O)NCC(=O)O` [N-Acetylglycin (Acetursäure), N-Acetylglycin], the “desodorierende Wirksamkeit” value is recorded as “gute Wirkstoffe”.

As for `CCOC(N)=O` [Urethan], the “desodorierende Wirksamkeit” value is on record as “Wirksam”.

Turning to `NC(=O)NCCO` [ß-Hydroxiethylharnstoff], the “desodorierende Wirksamkeit” value is “Sehr wirksam”.

As to Ethanolamide der Adipinsäure, the “desodorierende Wirksamkeit” value was “Erfolgreich getestet”.

As to Ethanolamide der Bernsteinsäure, the “desodorierende Wirksamkeit” value was “Erfolgreich getestet”.

Regarding Ethanolamide der Glutarsäure, the “desodorierende Wirksamkeit” value is on record as “Erfolgreich getestet”.

For Ethanolamide der Malonsäure, the “desodorierende Wirksamkeit” value is “Erfolgreich getestet”.

In the case of Ethanolamide der Weinsäure, the “desodorierende Wirksamkeit” value is listed as “Erfolgreich getestet”.

Regarding Ethanolamide der Zitronensäure, the “desodorierende Wirksamkeit” value is “Erfolgreich getestet”.
